“And” between values parts separate entries of the source, which are not always exact repeats. Equal entries are not always repeated. Inconclusive results and toxic doses are left out. Cut-off read from the data, not from the text of the source: active = T/C of 150% or more; inactive = T/C below 125%.
System: L1210 leukemia ip in BDF1 mice, survival T/C
Assay: NCI In Vivo Anticancer Drug Screen. Data for tumor model L1210 Leukemia (intraperitoneal) in B6D2F1 (BDF1) mice
Details: endpoint: mean survival time, higher = longer survival
Summary of the method: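 Read-out is survival time, reported as the treated-group measurement over the vehicle-control measurement.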

[1] = dose: 100.0 mg/kg/injection, schedule: Q04DX003 (ip), vehicle: Klucel (hydroxypropylcellulose) (HPC)
[2] = dose: 200.0 mg/kg/injection, schedule: Q04DX003 (ip), vehicle: Klucel (hydroxypropylcellulose) (HPC)
[3] = dose: 400.0 mg/kg/injection, schedule: Q04DX003 (ip), vehicle: Klucel (hydroxypropylcellulose) (HPC)
[4] = dose: 100.0 mg/kg/injection, schedule: Q01DX001 (ip), vehicle: saline
[5] = dose: 100.0 mg/kg/injection, schedule: Q04DX003 (ip), vehicle: saline
[6] = dose: 200.0 mg/kg/injection, schedule: Q01DX001 (ip), vehicle: saline
[7] = dose: 400.0 mg/kg/injection, schedule: Q01DX001 (ip), vehicle: saline
[8] = dose: 100.0 mg/kg/injection, schedule: Q01DX001 (ip), vehicle: Klucel (hydroxypropylcellulose) (HPC)
[9] = dose: 200.0 mg/kg/injection, schedule: Q01DX001 (ip), vehicle: Klucel (hydroxypropylcellulose) (HPC)
[10] = dose: 400.0 mg/kg/injection, schedule: Q01DX001 (ip), vehicle: Klucel (hydroxypropylcellulose) (HPC)
[11] = dose: 100.0 mg/kg/injection, schedule: Q01DX009 (ip), vehicle: saline
[12] = dose: 200.0 mg/kg/injection, schedule: Q01DX009 (ip), vehicle: saline
[13] = dose: 100.0 mg/kg/injection, schedule: Q01DX009 (ip), vehicle: saline with Tween-80
[14] = dose: 200.0 mg/kg/injection, schedule: Q01DX009 (ip), vehicle: saline with Tween-80
[15] = dose: 400.0 mg/kg/injection, schedule: Q01DX009 (ip), vehicle: saline with Tween-80

Measured: T/C

CC(C)CNS(=O)(=O)c1ccc(Cl)c([N+](=O)[O-])c1
inactive: [1] 99 % of control | [2] 97 % of control | [3] 106 % of control

CCCCCCCCCCCCCCCC(CCCC)C1CCCCC1 (stereo not drawn)
inactive: dose: 100.0 mg/kg/injection, schedule: Q01DX001 (ip), vehicle: saline + alcohol 100 % of control | dose: 200.0 mg/kg/injection, schedule: Q01DX001 (ip), vehicle: saline + alcohol 98 % of control | dose: 400.0 mg/kg/injection, schedule: Q01DX001 (ip), vehicle: saline + alcohol 96 % of control

O=C(Cl)c1c(Cl)c(Cl)c(C(=O)Cl)c(Cl)c1Cl
inactive: dose: 25.0 mg/kg/injection, schedule: Q01DX009 (ip), vehicle: saline 90 % of control | dose: 50.0 mg/kg/injection, schedule: Q01DX009 (ip), vehicle: saline 97 % of control | [4] 98 % of control | [5] 100 % of control | [6] 98 % of control | [7] 104 % of control

O=C(/C(=C1\SS/C(=C(/C(=O)c2ccccc2)c2ccccc2)S1)c1ccccc1)c1ccccc1
inactive: [8] 114 % of control | [1] 100 % of control | [9] 108 % of control | [2] 97 % of control | [10] 104 % of control | [3] 94 % of control

NC(CSCCc1ccc2ccccc2n1)C(=O)O (stereo not drawn)
inactive: [1] 100 % of control | [2] 95 % of control | [3] 99 % of control

CC(=O)NOCc1ccc([N+](=O)[O-])cc1
inactive: [1] 95 % of control | [2] 100 % of control | [3] 97 % of control

CCC(C)CCC(C)C1CCC2C3CCC4C=C(OC(C)=O)CCC4(C)C3CCC12C (stereo not drawn)
inactive: dose: 100.0 mg/kg/injection, schedule: Q04DX002 (ip), vehicle: saline with Tween-80 103 % of control | dose: 200.0 mg/kg/injection, schedule: Q04DX002 (ip), vehicle: saline with Tween-80 98 % of control | dose: 400.0 mg/kg/injection, schedule: Q04DX002 (ip), vehicle: saline with Tween-80 98 % of control

NCCc1ccc(F)cc1
inactive: [11] 109 % of control | [12] 97 % of control

O=C(Nc1ncc(S(=O)(=O)c2ccc([N+](=O)[O-])cc2)s1)C(F)(F)F
inactive: [13] 94 % of control | [14] 99 % of control

CC(=Nc1cccnc1)c1ccccc1
inactive: dose: 15.0 mg/kg/injection, schedule: Q01DX001 (ip), vehicle: carboxymethylcellulose (CMC) 98 % of control | dose: 30.0 mg/kg/injection, schedule: Q01DX001 (ip), vehicle: carboxymethylcellulose (CMC) 97 % of control

CCN(CCNC(C)(C)[P+](=O)O)c1ccccc1
inactive: dose: 75.0 mg/kg/injection, schedule: Q04DX003 (ip), vehicle: Klucel (hydroxypropylcellulose) (HPC) 100 % of control | [4] 105 % of control | dose: 150.0 mg/kg/injection, schedule: Q04DX003 (ip), vehicle: Klucel (hydroxypropylcellulose) (HPC) 96 % of control | [6] 105 % of control | dose: 300.0 mg/kg/injection, schedule: Q04DX003 (ip), vehicle: Klucel (hydroxypropylcellulose) (HPC) 110 % of control | [7] 102 % of control

Oc1c(CN2CCCC2)cc(Nc2nccc(/C=C/c3ccc(Cl)cc3)n2)cc1CN1CCCC1
inactive: dose: 25.0 mg/kg/injection, schedule: Q04DX003 (ip), vehicle: saline 96 % of control | dose: 50.0 mg/kg/injection, schedule: Q01DX001 (ip), vehicle: saline 96 % of control | dose: 50.0 mg/kg/injection, schedule: Q04DX003 (ip), vehicle: saline 96 % of control | [4] 93 % of control | [5] 90 % of control

CCCCCCC(C)O[Si](C)c1ccc(C)cc1 (stereo not drawn)
inactive: [13] 103 % of control | dose: 100.0 mg/kg/injection, schedule: Q04DX003 (ip), vehicle: saline with Tween-80 113 % of control | [14] 90 % of control | dose: 200.0 mg/kg/injection, schedule: Q04DX003 (ip), vehicle: saline with Tween-80 97 % of control | [15] 97 % of control | dose: 400.0 mg/kg/injection, schedule: Q04DX003 (ip), vehicle: saline with Tween-80 87 % of control

CCc1n[nH]c(C(N)=O)c1O
inactive: dose: 100.0 mg/kg/injection, schedule: Q01DX001 (ip), vehicle: gum acacia 103 % of control | [11] 108 % of control | dose: 200.0 mg/kg/injection, schedule: Q01DX001 (ip), vehicle: gum acacia 101 % of control | [12] 104 % of control | dose: 400.0 mg/kg/injection, schedule: Q01DX001 (ip), vehicle: gum acacia 106 % of control | dose: 400.0 mg/kg/injection, schedule: Q01DX009 (ip), vehicle: saline 100 % of control

Nc1sc(C(=O)O)cc1[N+](=O)[O-]
inactive: dose: 200.0 mg/kg/injection, schedule: Q01DX001 (ip), vehicle: carboxymethylcellulose (CMC) 92 % of control | dose: 400.0 mg/kg/injection, schedule: Q01DX001 (ip), vehicle: carboxymethylcellulose (CMC) 92 % of control

COc1ccccc1C(O)c1cnc(C)n1Cc1ccccc1 (stereo not drawn)
inactive: [8] 113 % of control | dose: 100.0 mg/kg/injection, schedule: Q01DX009 (ip), vehicle: Klucel (hydroxypropylcellulose) (HPC) 96 % of control and 97 % of control | dose: 100.0 mg/kg/injection, schedule: Q04DX002 (ip), vehicle: Klucel (hydroxypropylcellulose) (HPC) 96 % of control and 98 % of control | [1] 92 % of control | [9] 100 % of control | dose: 200.0 mg/kg/injection, schedule: Q01DX009 (ip), vehicle: Klucel (hydroxypropylcellulose) (HPC) 96 % of control and 103 % of control | dose: 200.0 mg/kg/injection, schedule: Q04DX002 (ip), vehicle: Klucel (hydroxypropylcellulose) (HPC) 98 % of control and 92 % of control | [2] 92 % of control | [10] 95 % of control | dose: 400.0 mg/kg/injection, schedule: Q01DX009 (ip), vehicle: Klucel (hydroxypropylcellulose) (HPC) 93 % of control and 97 % of control | dose: 400.0 mg/kg/injection, schedule: Q04DX002 (ip), vehicle: Klucel (hydroxypropylcellulose) (HPC) 95 % of control and 92 % of control | [3] 95 % of control

Nc1nc(N)c(CCCOc2ccc(NC(=O)c3cc(S(=O)(=O)F)ccc3Cl)cc2)c(N)n1
inactive: [8] 99 % of control | [9] 99 % of control | [10] 105 % of control

CCn1c(C)nc2cc(Cl)c(Br)cc21
inactive: [5] 107 % of control | dose: 200.0 mg/kg/injection, schedule: Q04DX003 (ip), vehicle: saline 110 % of control

COc1ccc(Cl)cc1NC(=O)OCCCc1ccccc1
inactive: dose: 100.0 mg/kg/injection, schedule: Q01DX009 (ip), vehicle: gum acacia 108 % of control | dose: 200.0 mg/kg/injection, schedule: Q01DX009 (ip), vehicle: gum acacia 98 % of control | dose: 400.0 mg/kg/injection, schedule: Q01DX009 (ip), vehicle: gum acacia 109 % of control

CC1=C[P+](C)(Cc2ccccc2)CC1 (stereo not drawn)
inactive: [4] 100 % of control

O=C(Nc1ccccc1)c1ccccc1C(O)(c1ccccc1)c1ccc(Cl)cc1 (stereo not drawn)
inactive: [13] 92 % of control | [14] 90 % of control | [15] 93 % of control

CC(=O)OCCN1CCCCC1
inactive: dose: 100.0 mg/kg/injection, schedule: Q04DX002 (ip), vehicle: saline 94 % of control | dose: 200.0 mg/kg/injection, schedule: Q04DX002 (ip), vehicle: saline 94 % of control | dose: 400.0 mg/kg/injection, schedule: Q04DX002 (ip), vehicle: saline 97 % of control

CC(C)(C#CC(C)(C)OC(=O)Nc1ccccc1)OC(=O)Nc1ccccc1
inactive: [4] 98 % of control | [6] 95 % of control | [7] 101 % of control

Reference: PubChem BioAssay AID248 (DTP/NCI, 2004)
